Publication PMC7211202 (Investigational New Drugs, 2019)
Several values for one entry are separate records, joined by “and”; a condition that tells them apart may be missing. Identical values can stand only once. Entries after “also recorded” stand apart in the source; their conditions may differ. Like-named read-outs stand apart in the source and are kept apart here.

Key:
[1] = system: P53WT solid tumors or multiple myeloma; experiment: Tumor response (RECIST 1.1, Macdonald, IMWG criteria); assay type: in vivo, human
Experimental: Efficacy response was assessed using revised Response Evaluation Criteria in Solid Tumors (RECIST), version 1.1 [25] Macdonald criteria for GBM [26] or International Myeloma Working Group (IMWG) response criteria for multiple myeloma.

[2] = Plasma AMG 232 pharmacokinetics (HPLC-MS, non-compartmental analysis); assay type: in vivo, human; details: for AUC(0-t) / Cmax / Tmax / Vd/F: human, plasma, oral; for AUC(0-t): read-out: AUC24h, mean (SD); for Cmax: read-out: Cmax, mean (SD); for Tmax: read-out: tmax, median (range); for Vd/F: read-out: Vz/F, mean (SD)
Experimental: Non-compartmental analysis was performed using WinNonlin Professional software, version 6.3. Parameters were summarized descriptively.

[3] = 240-mg dose expansion, ER + PR+ breast cancer
[4] = 240-mg dose expansion, ER + PR– breast cancer
[5] = 240-mg dose expansion, breast cancer
[6] = 240-mg dose expansion, multiple myeloma
[7] = 240-mg dose expansion, other solid tumors
[8] = 15 mg, Day 1, dose escalation, 15 mg (n = 3)
[9] = 15 mg, Day 7, dose escalation, 15 mg (n = 3)
[10] = 30 mg, Day 1, dose escalation, 30 mg (n = 3)
[11] = 30 mg, Day 7, dose escalation, 30 mg (n = 3)
[12] = 60 mg, Day 1, dose escalation, 60 mg (n = 2–4)
[13] = 60 mg, Day 7, dose escalation, 60 mg (n = 2–4)
[14] = 120 mg, Day 1, dose escalation, 120 mg (n = 4–7)
[15] = 120 mg, Day 7, dose escalation, 120 mg (n = 4–7)
[16] = 240 mg, Day 1, 240-mg dose expansion, DDLPS (n = 6–10)
[17] = 240 mg, Day 1, 240-mg dose expansion, ER + PR+ Breast (n = 6–8)
[18] = 240 mg, Day 1, 240-mg dose expansion, ER + PR– Breast (n = 4)
[19] = 240 mg, Day 1, 240-mg dose expansion, GBM (n = 6–9)
[20] = 240 mg, Day 1, 240-mg dose expansion, Multiple Myeloma (n = 7–10)
[21] = 240 mg, Day 1, 240-mg dose expansion, Other Solid (n = 9–16)

With `CC(C)[C@@H](CS(=O)(=O)C(C)C)N1C(=O)[C@@](C)(CC(=O)O)C[C@H](c2cccc(Cl)c2)[C@H]1c1ccc(Cl)cc1` [AMG 232] the “Stable disease as a best result” value ([1]; 240-mg dose expansion, DDLPS) was 7 of 10, the “median duration of stable disease” value ([1]; 240-mg dose expansion, DDLPS) was 2.0 months and the “duration of stable disease, range” value [1, 3] was 0.9–4.0 months. The “median duration of stable disease” value [1, 3] was 2.0 months, the “duration of stable disease, range” value [1, 4] was 0.9–3.8 months and the “median duration of stable disease” value [1, 4] was 1.4 months. For the same compound, the “Stable disease as a best result” value ([1]; 240-mg dose expansion, GBM) was “six of 10 and 6 of 10”, the “median duration of stable disease” value ([1]; 240-mg dose expansion, GBM) was 1.8 months and the “duration of stable disease, range” value ([1]; 240-mg dose expansion, WDLPS) was 1.9–6.1 months. For the same compound, the “median duration of stable disease” value ([1]; 240-mg dose expansion, WDLPS) was 3.9 months, the “Stable disease as a best result” value [1, 5] was 7 of 12 and the “duration of stable disease, range” value [1, 5] was 1.7–4.0 months. The “median duration of stable disease” value [1, 5] was 1.4–2.0 months and 2.0 months, the “Stable disease as a best result” value [1, 6] was 5 of 10 and the “duration of stable disease, range” value [1, 6] was 1.2–2.0 months. For the same compound, the “Stable disease as a best result” value [1, 7] was 10 of 16, the “median duration of stable disease” value [1, 7] was 3.3 months and the “Patients with progressive disease” value ([1]; 240-mg dose expansion, overall) was 15 (22%) n (%). For the same compound, the “Patients with stable disease” value ([1]; 240-mg dose expansion, overall) was 45 (66%) n (%), the “duration of stable disease, range” value ([1]; 240-mg dose expansion, overall) was 0.5–12.9 months and the “median duration of stable disease” value ([1]; 240-mg dose expansion, overall) was 2.0 months. For the same compound, the “Patients with unconfirmed partial responses” value ([1]; central evaluation) was 4%, the “Duration of unconfirmed partial response” value ([1]; central evaluation, patient with WDLPS) was 2.4 months and the “Duration of unconfirmed partial response” value ([1]; central evaluation, patient with breast cancer) was 2.0 months. The “Duration of unconfirmed partial response” value ([1]; central evaluation, patient with squamous cell carcinoma) was 0.1 months, the “Patients with stable disease” value ([1]; dose escalation) was 31 (80%) n (%) and the “duration of stable disease, range” value ([1]; dose escalation) was 0.7–22.4 mo. For the same compound, the “median duration of stable disease” value ([1]; dose escalation) was 3.1 months, the “Patients with non-complete response/non-progressive disease” value ([1]; dose escalation, based on non-target lesions) was 2 (5%) n (%) and the Objective responses ([1]; local evaluation, dose escalation and expansion) was “no responses; also recorded: no objective response”. The “Dose proportionality of plasma concentrations” value ([2]; 15–480 mg QD for 7 days Q3W) was “increased generally dose proportionally”, the AUC(0-t) [2, 8] was 884 ng·h/mL and the Cmax [2, 8] was 169 ng/mL. It also gave a Tmax [2, 8] of 3.1 h, an AUC(0-t) [2, 9] of 949 ng·h/mL and a Cmax [2, 9] of 130 ng/mL. For the same compound, the Vd/F [2, 9] was 497 L, the Tmax [2, 9] was 3.1 h and the AUC(0-t) [2, 10] was 1960 ng·h/mL. The Cmax [2, 10] was 255 ng/mL, the Tmax [2, 10] was 3 h and the AUC(0-t) [2, 11] was 2830 ng·h/mL. The Cmax [2, 11] was 259 ng/mL, the Tmax [2, 11] was 3 h and the AUC(0-t) [2, 12] was 2950 ng·h/mL. For the same compound, the Cmax [2, 12] was 527 ng/mL, the Tmax [2, 12] was 3 h and the AUC(0-t) [2, 13] was 4000 ng·h/mL. For the same compound, the Cmax [2, 13] was 457 ng/mL, the Vd/F [2, 13] was 360 L and the Tmax [2, 13] was 4 h. For the same compound, the AUC(0-t) [2, 14] was 5160 ng·h/mL, the Cmax [2, 14] was 599 ng/mL and the Tmax [2, 14] was 3 h. The AUC(0-t) [2, 15] was 8940 ng·h/mL, the Cmax [2, 15] was 868 ng/mL and the Vd/F [2, 15] was 664 L. For the same compound, the Tmax [2, 15] was 3 h, the AUC(0-t) [2, 16] was 8010 ng·h/mL and the Cmax [2, 16] was 986 ng/mL. It also gave a Tmax [2, 16] of 2 h, an AUC(0-t) [2, 17] of 9660 ng·h/mL and a Cmax [2, 17] of 1920 ng/mL. It also gave a Tmax [2, 17] of 2.8 h, an AUC(0-t) [2, 18] of 9430 ng·h/mL and a Cmax [2, 18] of 1360 ng/mL. It also gave a Tmax [2, 18] of 2.1 h, an AUC(0-t) [2, 19] of 5360 ng·h/mL and a Cmax [2, 19] of 978 ng/mL. The Tmax [2, 19] was 3 h, the Cmax [2, 20] was 1320 ng/mL and the Tmax [2, 20] was 2 h. It also gave an AUC(0-t) [2, 21] of 10800 ng·h/mL and a Cmax [2, 21] of 1670 ng/mL.
